From US20240002388A1, “PYRIMIDINONE COMPOUNDS AND USES THEREOF” (HUTCHISON MEDIPHARMA LIMITED, priority 2020, published 2024)

What follows are molecules tested on IL-1β production in human whole blood (assay: TNF-α, Z-VAD-FMK and SM-164 induced IL-1β production in human whole blood). Settings: Z-VAD-FMK and SM-164 stimulation, 6 hours, IL-1β ELISA.
Assay type: cell-based
Source text: • Human blood samples were collected by venipuncture from healthy volunteers, with signed consent from each volunteer before blood collection; • RPMI 1640 medium: L-Glutamine, 1.5 g/L NaHCO3, 2.383 g/L HEPES solution, 0.11 g/L sodium pyruvate and 4.5 g/L Glucose; Gibco, catalog: A10491-01; • Dimethyl sulfoxide (DMSO): Sigma, catalog: D2650; • Recombinant Human TNF-alpha Protein (hTNF-α): R&D system, catalog: 210-TA-100; • Pan-Caspase inhibitor (Z-VAD-FMK): Selleckchem, catalog: S7023; • Smac Mimetic-164 (SM-164): APEXBIO, catalog: A8815; • Human IL-1 beta/IL-1F2 Quantikine ELISA Kit: R&D systems, catalog: SLB50; • Envision Multimode Microplate Reader: PerkinElmer; • 96-well clear flat bottom TC-treated culture microplate: Falcon, catalog: 353072; • 96-well Microplate (U bottom): Corning, catalog: 3799. 2. Assay Protocol Human whole blood was anti-coagulated with heparin and used in human whole blood assay immediately. Fresh heparinized human whole blood was diluted with an equal volume of RPMI 1640 medium, aliquoted the diluted blood into 96-well plate, 90 μL each well.
Compound preparation: dilute the compound stock using DMSO and perform 3-fold serial dilution to 8-points. Then transfer the diluted compounds to RPMI 1640 medium and mix.
Compound treatment and stimulation: transfer 5 μL of the diluted compound to appropriate wells of the plate. The final concentration of the compound was 1.0, 0.333, 0.111, 0.037, 0.012, 0.004, 0.0014 and 0.0005 μM, and each well contained 0.3% DMSO. For positive and negative control wells, add 5 μL of RPMI 1640 medium with 3% DMSO. And incubate the plate at 5% CO2, 37° C. for 1 hour.
Then 5 μL of the mixture of stimuli (TNF-α, Z-VAD-FMK and SM-164) was added with the final concentration of […] except negative control wells. The negative control wells were added same volume of RPMI 1640 medium.
After incubation 6 hours in a 37° C./5% CO2 incubator, each well was added with 100 μL of PBS, and centrifuged at 4000 rmp for 10 minutes. The 110 μL of supernatant per well was collected, and stored at −80° C. for ELISA.
Prepared 100 μL of IL-1β standards (in duplicate) in designated wells. ELISA was operated according to manufacturer's instruction. In the end, measured the ELISA plate absorbance at 450 nm/570 nm using Envision.
Inhibition rates of compounds on TNF-α, Z-VAD-FMK and SM-164 induced IL-1β Production in human whole blood were calculated as follows: • IL-1β level was calculated with IL-1β standard curve (standard curve fitting equation is four parameters logistic model)
[formula] • IL-1β levelstimulated: the concentration of IL-1β in the positive control wells which added TNF-α, Z-VAD-FMK, SM-164 and no compound; • IL-1β levelnon-stimulated: the concentration of IL-1β in the negative control wells without the treatment of TNF-α, Z-VAD-FMK, SM-164 and compound; • IL-1β levelcompound: the concentration of IL-1β in the wells with the treatment of TNF-α, Z-VAD-FMK, SM-164 and compound. • The IC50 value of compound is determined with XLFit 5 software (ID Business Solutions Limited).

SMILES	IC50 [nM]
CC(C)n1cncc(-c2ccc(C3(NC(=O)c4ncc5cnn(C(C)C6CC6)c5n4)CC3)cc2)c1=O (racemic) [Compound 59, 1-(1-cyclopropylethyl)-N-(1-(4-(1-i-propyl-6-oxo-1,6-dihydropyrimidin-5-yl)phenyl)cyclopropyl)-1H-pyrazolo[3,4-d]pyrimidine-6-carboxamide]	4
CC(C)n1ncc2cnc(C(=O)NC3(c4ccc(-c5cncn([C@H](C)C(F)(F)F)c5=O)cc4F)CC3)nc21 (stereo in doubt) [Compound 46]	6
CC(C)n1ncc2cnc(C(=O)NC3(c4ccc(-c5cncn([C@@H](C)C(F)(F)F)c5=O)cc4F)CC3)nc21 (stereo in doubt) [Compound 47]	9
CC(C)n1cncc(-c2ccc(C3(NC(=O)c4ncc5cnn(C(C)C)c5n4)CC3)cc2)c1=O [Compound 29, 1-isopropyl-N-(1-(4-(1-isopropyl-6-oxo-1,6-dihydropyrimidin-5-yl)phenyl)cyclopropyl)-1H-pyrazolo[3,4-d]pyrimidine-6-carboxamide]	4
CC(C)n1ncc2cnc(C(=O)NC3(c4ccc(-c5cncn(C6COC6)c5=O)cc4)CC3)nc21 [Compound 41]	18
CC(C)n1cncc(-c2ccc(C3(NC(=O)c4ncc5cnn(C6COC6)c5n4)CC3)cc2)c1=O [Compound 60]	10
CC(C)n1cncc(-c2ccc(C3(NC(=O)c4ncc5cnn(CC6CC6)c5n4)CC3)c(F)c2)c1=O [Compound 72]	39
CC(C)n1cncc(-c2ccc(C3(NC(=O)c4ncc5cnn(CC6CC6)c5n4)CC3)cc2F)c1=O [Compound 73]	21
CC(C)n1ncc2cnc(C(=O)NC3(c4ccc(-c5cncn(CC6CC6)c5=O)cc4F)CC3)nc21 [Compound 74]	13
CC(C)n1ncc2cnc(C(=O)NC3(c4ccc(-c5cncn(CC6CC6)c5=O)c(F)c4)CC3)nc21 [Compound 75]	11
CC(C)n1ncc2cnc(C(=O)NC3(c4ccc(-c5cncn([C@H](C)C6CC6)c5=O)cc4)CC3)nc21 [Compound 84, (R)—N-(1-(4-(1-(1-cyclopropylethyl)-6-oxo-1,6-dihydropyrimidin-5-yl)phenyl)cyclopropyl)-1-i-propyl-1H-pyrazolo[3,4-d]pyrimidine-6-carboxamide]	5
CC(C)n1ncc2cnc(C(=O)NC3(c4ccc(-c5cncn([C@@H](C)C6CC6)c5=O)cc4)CC3)nc21 [Compound 85, (S)—N-(1-(4-(1-(1-cyclopropylethyl)-6-oxo-1,6-dihydropyrimidin-5-yl)phenyl)cyclopropyl)-1-i-propyl-1H-pyrazolo[3,4-d]pyrimidine-6-carboxamide]	5
CC(C)n1ncc2cnc(C(=O)NC3(c4ccc(-c5cncn(CC6(C)CC6)c5=O)cc4)CC3)nc21 [Compound 86]	13
CC(C)n1cncc(-c2ccc(C3(NC(=O)c4ncc5cnn([C@H](C)C6CC6)c5n4)CC3)cc2)c1=O [Compound 89, (R)-1-(1-cyclopropylethyl)-N-(1-(4-(1-i-propyl-6-oxo-1,6-dihydropyrimidin-5-yl)phenyl)cyclopropyl)-1H-pyrazolo[3,4-d]pyrimidine-6-carboxamide]	18
CC(C)n1cncc(-c2ccc(C3(NC(=O)c4ncc5cnn([C@@H](C)C6CC6)c5n4)CC3)cc2)c1=O [Compound 90, (S)-1-(1-cyclopropylethyl)-N-(1-(4-(1-i-propyl-6-oxo-1,6-dihydropyrimidin-5-yl)phenyl)cyclopropyl)-1H-pyrazolo[3,4-d]pyrimidine-6-carboxamide]	7

Other lines, results leading:

IC50 [nM]	SMILES
4	CC(C)n1ncc2cnc(C(=O)NC3(c4ccc(-c5cncn(CC6CC6)c5=O)cc4)CC3)nc21 [Compound 36]
11	CC(C)n1cncc(-c2ccc(C3(NC(=O)c4ncc5cnn(CC6CC6)c5n4)CC3)cc2)c1=O [Compound 61]
12	O=C(NC1(c2ccc(-c3cncn(CC4CC4)c3=O)cc2)CC1)c1ncc2cnn(CC3CC3)c2n1 [Compound 64]
43	C[C@H](n1cncc(-c2ccc(C3(NC(=O)c4ncc5cnn(CC6CC6)c5n4)CC3)cc2)c1=O)C(F)(F)F [Compound 68]
8	C[C@@H](n1cncc(-c2ccc(C3(NC(=O)c4ncc5cnn(CC6CC6)c5n4)CC3)cc2)c1=O)C(F)(F)F [Compound 70]
38	C[C@H](n1cncc(-c2ccc(C3(NC(=O)c4ncc5cnn(CC6CC6)c5n4)CC3)c(F)c2)c1=O)C(F)(F)F [Compound 71]
9	C[C@@H](n1cncc(-c2ccc(C3(NC(=O)c4ncc5cnn(CC6CC6)c5n4)CC3)c(F)c2)c1=O)C(F)(F)F [Compound 76]
